# Test results reported in article PMC10692721, “Drug discovery for heart failure targeting myosin-binding protein C” (The Journal of Biological Chemistry, 2023).
# Key:
# [1] = test system: TMR-fC1-C2 (C1-C2 of fast skeletal MyBP-C); assay: FLT-TMR concentration-response assay, fC1-C2; type: binding; settings: 60 μM compound
# Method: (§1) Compounds identified as initial hits were further examined to determine the concentration–response curves for seven conditions ([1]): FMAL-actin alone identified actin-binding compounds that alter the FLT of FMAL-actin ([2]).
# (§2) Fluorescence lifetime (FLT) measurements were acquired using a high-throughput FLT plate reader (Fluorescence Innovations, Inc) ([14], [27]), provided by Photonic Pharma LLC. […] The observed waveforms were analyzed as described previously ([15], [28]).
# (§3) The primary hits were dissolved in DMSO to make a 10 mM stock solution, which was serially diluted in 96-well mother plates. Hits were screened at eight concentrations (0.5–100 μM). […] Compounds (1 μl) were transferred from the mother plates into 384-well plates using a Mosquito HV liquid handler (TTP Labtech Ltd, Hertfordshire, UK). The same procedure of dispensing as for the pilot screening was applied in the concentration-response assays. Concentration dependence of the FLT-FRET (E/EDMSO) or FLT-TMR (Δτ) change data was fit to a Hill equation only under certain conditions to help guide the eye (Fig. 4).
# [2] = test system: FMAL-actin plus TMR-cC0-C2; assay: Selleck library HTS, 473 nm excitation (FLT of FMAL-actin with TMR-cC0-C2, FLT-FRET); type: binding, human; settings: for 473-nm Δτ, Repeat 1 / 473-nm Δτ, Repeat 2: initial screen, 30 μM compound; for 473-nm z-score (based on avg Δτ): robust z-score, hit threshold ±4, 30 μM compound
# Method: as §2
# (§4) In total, 50 nl of each solution was dispensed in DMSO using an automated Echo 550 acoustic liquid dispenser (Labcyte). Compounds were formatted into the assay plates, at a final concentration of 30 μM, with the first two and second to last columns loaded with DMSO only (compound-free controls). In the final column, 30 μM of suramin was loaded as a positive control (tool compound). These assay plates were then heat-sealed using a PlateLoc Thermal Microplate Sealer (Agilent Technologies) and stored at −20 °C. Before screening, compound plates were equilibrated to room temperature (∼25 °C). […] Plates were incubated at room temperature for 60 min before recording the data with the fluorescence lifetime plate reader.
# After fitting the waveforms with a single exponential decay to quantify donor FLT, the change in FLT (Δτ) was computed by performing a moving median subtraction in the order the plate was scanned with a window size of half a plate row […]. The reasons for this are twofold. Firstly, plate gradients are often observed due to the heating of the digitizer during acquisition.
# To account for the necessity to correct for plate gradients in the computation of E, the median τDMSO prior to the application of the moving median correction was added to each well’s Δτ value to recover a rescaled value of τ.
# [3] = test system: PKA-phosphorylated TMR-cC0-C2 (cC0-C2#P); assay: FLT-TMR concentration-response assay, PKA-phosphorylated cC0-C2; type: binding, human; settings: 60 μM compound
# Method: as §1, §2, §3
# [4] = test system: TMR-cC0-C2 (C0-C2 fragment of human cMyBP-C); assay: FLT-TMR concentration-response assay (FLT of TMR on cC0-C2, no actin); type: binding; settings: 60 μM compound
# Method: as §1, §2, §3
# TMR-cC0-C2 = assay: Selleck library HTS, 532 nm excitation (FLT of TMR-cC0-C2 in presence of FMAL-actin); type: binding, human; settings: for 532-nm Δτ, Repeat 1 / 532-nm Δτ, Repeat 2: initial screen, 30 μM compound; for 532-nm z-score (based on avg Δτ): robust z-score, hit threshold ±4, 30 μM compound
# Method: as §2, §4
# Hits that exceeded the z-score hit criteria in the donor-only screen were excluded from consideration. To remove compounds with confounding fluorescence properties, a similarity index (SI, specifically the cosine distance, Equation 5) was computed using data from the SUPR instrument by comparing a region (500–540 nm) of the donor-only spectrum (I^(a)) for each well to that of the plate-wide average DMSO spectrum (I^(b)) in the same wavelength band ([29]). Compounds that exceeded an SI robust z-score of 4 were deemed likely fluorescent compounds and removed from consideration.(5) SI=1−∑Ii(a).Ii(b)/∑Ii(a).Ii(a)∑Ii(b).Ii(b)
# [5] = test system: FMAL-actin/TMR-cC0-C2 interaction; assay: FLT-FRET concentration-response assay, FMAL-actin plus TMR-cC0-C2; type: binding, human
# Method: as §1, §2, §3
SMILES,cC0-C2/fC1-C2 (ratio of FLT changes) [1],"fC1-C2 FLT change (% change from DMSO, FLT of TMR-MyBP-C) [1] [%]","473-nm Δτ, Repeat 1 [2] [ns]","473-nm Δτ, Repeat 2 [2] [ns]",473-nm z-score (based on avg Δτ) [2],"cC0-C2#P FLT change (% change from DMSO, FLT of TMR-MyBP-C) [3] [%]",cC0-C2/cC0-C2#P (ratio of FLT changes) [4],"cC0-C2 FLT change (% change from DMSO, FLT of TMR-MyBP-C) [4] [%]","532-nm Δτ, Repeat 1 (TMR-cC0-C2) [ns]","532-nm Δτ, Repeat 2 (TMR-cC0-C2) [ns]",532-nm z-score (based on avg Δτ) (TMR-cC0-C2),fold effect on increased FRET (or binding) (Table 2) ([5]; comparison not given),specificity of FLT-FRET effect for unphosphorylated over phosphorylated cC0-C2 ([5]; effect on cC0-C2 compared to phosphorylated cC0-C2 (Tables 1 and 2))
CC1(C)CC[C@]2(C(=O)O)CC[C@]3(C)C(=CC[C@@H]4[C@@]5(C)CC[C@H](O)[C@@](C)(CO)[C@@H]5CC[C@]43C)[C@@H]2C1 [Hederagenin],1.1,2.3,0.083,0.060,4.06,3.6,0.7,2.5,-0.038,-0.038,-2.29,,
Cc1cn(-c2cc(NC(=O)c3ccc(C)c(Nc4nccc(-c5cccnc5)n4)c3)cc(C(F)(F)F)c2)cn1.Cl [Nilotinib hydrochloride],0.6,15.6,-0.063,-0.031,-2.59,14.1,0.7,10.1,0.121,0.105,6.94,,
"Cc1cnc(C(=O)N[C@H]2CCCCC/C=C\[C@@H]3C[C@@]3(C(=O)NS(=O)(=O)C3CC3)NC(=O)[C@@H]3C[C@@H](Oc4nc5ccccc5c5ccccc45)CN3C2=O)cn1 [Paritaprevir (ABT-450), Paritaprevir]",2.2,11.0,0.115,0.058,4.85,20.3,1.2,23.8,0.220,0.254,14.52,,
C[C@H]1O[C@@H](O[C@H]2CC[C@@]3(C)[C@@H](CC[C@]4(C)[C@@H]3C=C[C@]35OC[C@@]6(CCC(C)(C)C[C@H]63)[C@H](O)C[C@]54C)[C@]2(C)CO)[C@H](O)[C@@H](O[C@@H]2O[C@H](CO)[C@@H](O)[C@H](O)[C@H]2O)[C@H]1O [Saikosaponin D],1.3,4.2,-0.122,-0.094,-5.99,6.3,0.9,5.4,0.065,0.086,4.65,fivefold or greater,13–54 fold
O=C(O)[C@H]1O[C@@H](Oc2cc3oc(-c4ccc(O)cc4)cc(=O)c3c(O)c2O)[C@H](O)[C@@H](O)[C@@H]1O [Scutellarin],1.0,−9.5,0.142,0.076,6.15,−8.7,1.0,−9.1,-0.111,-0.145,-7.79,,
CC1(C)CCC(C)(C)c2cc(NC(=O)c3ccc(C(=O)O)cc3)ccc21 [Tamibarotene],0.9,5.9,0.075,0.067,4.00,7.2,0.7,5.2,0.075,0.106,5.55,,
O=C(Nc1ccc(Cl)cc1)Nc1ccc(Cl)c(Cl)c1 [Triclocarban],0.5,22.2,-0.128,-0.042,-4.72,18.2,0.6,11.6,0.374,0.415,24.12,,
C[C@@H]1O[C@@H](OC[C@H]2O[C@@H](Oc3c(-c4ccc(OCCO)c(OCCO)c4)oc4cc(OCCO)cc(O)c4c3=O)[C@H](O)[C@@H](O)[C@@H]2O)[C@H](O)[C@H](O)[C@H]1O [Troxerutin],1.0,6.0,-0.024,-0.024,-1.32,7.3,0.8,6.1,0.074,0.088,4.99,,
